US9877969B2, “Treatments with triazines” (CEVA SANTE ANIMALE, priority 2012, dated 2018)

Assays:
Format in all cases: in vivo
[1] = system: Isospora suis; assay: Anti-coccidial efficacy in piglets orally challenged with Isospora suis (Example B); details: single i.m. 20 or 40 mg/kg (G1, G2)
Protocol: (§1) • Group 1: 10 piglets 2 days old were injected with one intramuscular dose of toltrazuril C629 (dose=20 mg toltrazuril per kg body weight equivalent to 0.4 mL/Kg body weight) on SD0. • Group 2: 11 piglets 2 days old were injected with one intramuscular dose of toltrazuril C629 (dose=40 mg toltrazuril per kg body weight equivalent to 0.8 mL/kg body weight) on SD0. • Group 3: 9 piglets 2 days old were dosed orally with the standard commercial formulation of toltrazuril, Cevazuril® (dose=20 mg toltrazuril per kg body weight equivalent to 0.4 mL/Kg body weight) on SD0. • Group 4: 8 piglets, left untreated.
(§2) All four (4) groups of piglets were injected on SD0 with iron injection (Gleptosil®) at the dose rate of 1 ml per piglet. 3 days after treatment (on SD3), the piglets were orally challenged with a characterized strain of Isospora suis.
(§3) The following study parameters were used to assess the efficacy of the test products: • Local and general tolerance (for Groups 1 and 2); • Occurrence of diarrhea and fecal consistency; • Oocyst excretion; • Body weight development; and • Serum concentrations of toltrazuril and its metabolite toltrazuril sulfone (e.g., ponazuril) in Groups 1, 2 and 3. Results

[2] = Body weight development of piglets on a farm with a known history of coccidiosis (Example A)
Protocol: (§4) This target animal safety and efficacy study was conducted on a farm with a known history of cocciodiosis. The main objective was to study the safety and efficacy of intramuscular injection of toltrazuril in comparison to the standard oral application. • Group 1: 8 piglets 3 days old were injected by a single intramuscular dose of toltrazuril (dose=20 mg toltrazuril per kg body weight equivalent to 0.4 mL/kg body weight) on SD0. • Group 2: 8 piglets 3 days old were injected by one intramuscular dose of toltrazuril (60 mg toltrazuril per kg body weight equivalent to 1.2 mL/Kg body weight) on SD0. • Group 3: 8 piglets 3 days old were dosed orally with the standard commercial formulation of toltrazuril, Cevazuril® (dose=20 mg toltrazuril per kg body weight equivalent to 0.4 mL/Kg body weight) on SD0. • Group 4: 12 piglets 3 days old, left untreated.
(§5) All four (4) groups of piglets were injected on SD0 with iron (Gleptosil®) at the dose rate of 1 ml per piglet.
(§6) The local and general tolerances, as well as body weight development, were assessed.

[3] = Local and general tolerance in 2-day-old piglets (Example B); details: all tested doses (i.m. 20 and 40 mg/kg)
Protocol: as §1, §2, §3

[4] = Local and general tolerance of a single intramuscular injection in 3-day-old piglets (Example A)
Protocol: as §4, §5, §6

[5] = Pharmacokinetics: serum concentrations of toltrazuril and toltrazuril sulfone in 2-day-old piglets (Example B); details: after intramuscular application
Protocol: as §1, §2, §3

For Cc1cc(-n2c(=O)[nH]c(=O)n(C)c2=O)ccc1Oc1ccc(SC(F)(F)F)cc1 [toltrazuril], the Fecal consistency ([1]; Isospora suis challenge on SD3) was “unchanged”, the Oocyst excretion ([1]; Isospora suis challenge on SD3) was “No oocyst excretion” and the “Weight gain versus control animals (G4)” value ([1]; infected animals) was “gained more weight than the control animals”. The “Weight gain versus control non-treated piglets” value ([2]; intramuscularly treated piglets, at SD0+29 days) was “+2 kg”, the Body weight development ([2]; treated piglets) was “normal” and the Tolerance [3] was “well tolerated”. The “Time to disappearance of local reaction (edema) post injection” value ([4]; intramuscular 1.2 mL/Kg body weight) was “less than 1 week”, the Local reaction ([4]; intramuscular 1.2 mL/Kg body weight (60 mg/kg)) was “limited local reaction (edema) in some piglets” and the General tolerance ([4]; single intramuscular doses up to 60 mg/kg, 3-day-old piglets) was “well tolerated”. The Pain at injection ([4]; single intramuscular injection, 3-day-old piglets) was “No pain” and the Absorption [5] was “well absorbed”.
